Six molecules from patent publication US20090203776A1, “METHODS OF USING MENTHOL PROPYLENEGLYCOL-CARBONATE AND ANALOGS THEREOF FOR PRODUCING ANTI-INFLAMMATORY AND ANTI-ANGIOGENIC EFFECTS” (priority 2004, published 2009) can be followed below.

Series [1] deals with TPA-induced inflammatory response (mouse ear edema). Kind of series: TPA-induced mouse ear edema, topical application. It counts as in vivo, mice. As to conditions: for anti-inflammatory effect (in words): TPA-induced inflammatory response, topical; for Anti-inflammatory Effect (% of control): reduction in ear thickness vs control group. As for the experimental part:
Edema was induced in mice by topical application of 10 μl of TPA (Tetradecnoylphorbol acetate) in acetone (2.5 μg/ear) to both the inner and outer surface of one ear of each mouse used in the experiment. Each test compound, diluted with acetone to a concentration of 10% was applied topically to the inflamed mouse ear immediately after TPA application, so as to deliver 2.5 mg/ear. The reference drug, indomethacin (0.5 mg/ear), was administered as a positive control. The thickness of each ear was measured before treatment and 4 hours after induction of inflammation, using a micrometer (Mitutoyo Co.). Anti-inflammatory effect was expressed as the reduction in ear thickness with respect to the control group.

The subject of series [2] is HUVE (Human Umbilical Vein Endothelial) cells. Kind of series: HUVE cell proliferation in the presence of bFGF, XTT. It counts as cell-based. As to conditions: 48 hours; for Proliferation (%): bFGF only = 100, no bFGF = 0; for Average (relative cell number, XTT): with bFGF. As for the experimental part:
HUVE (Human Umbilical Vein Endothelial) cells were isolated from human umbilical cord veins by a method of Jaffe et al. (Jaffe, E. A., Nachman, R. L., Becker, C. G., and Minick, C. R. Culture of Human endothelial cells derived from umbilical veins. J. Clin. Invest. 52: 2745-2756, 1973). HUVE cells were confirmed by immunostaining with antibody against factor VIII. The cells were grown in M199 medium (Gibco BRL, Grand Island, N.Y.) supplemented with 10% fetal bovine serum, 100 units/mL penicillin, 100 μg/mL streptomycin, 50 μg/mL endothelial cell growth supplement, and 5 units/mL heparin at 37° C. in an atmosphere of 5% CO2-95% air.
1×10^4 HUVE cells were plated in each well of 96 well plates and five different concentrations ranging from 1 to 100 of racemic menthol propyleneglycol-carbonate were tested in the presence of bFGF used as maximum proliferation control. Cells were cultured for an additional 48 hours, and relative cell numbers in each well were determined by XTT Cell Proliferation Kit (Roche).
(Formazan colour is commonly taken as a measure of viable cells.)

For series [3], the system named is aortic rings (angiogenic sprouting / microvessel formation). Kind of series: ex vivo rat aortic ring angiogenesis assay. It counts as cell-based, Sprague Dawley rats. As to conditions: for % Inhibition (microvessel density) / Microvessel Density (pixel^2): day 10; for Microvessel Density (pixel^2): 5 aortic rings, ECGS as inducer; for anti-angiogenic effect (in words): rat aortic ring assay, 1, 10, and 100 μM. The text has this:
The effect of racemic menthol propyleneglycol-carbonate on angiogenesis was studied by culturing aortic explants in three-dimensional matrix gels according to the procedure of Kruger and Figg (Kruger E. A. and Figg, W. D. Protein Binding Alters the Activity of Suramin, Carboxyamidotriazole, and UCN-01 in an ex Vivo Rat Aortic Ring Angiogenesis Assay Clinical Cancer Research 7:1867-1872, 2001). Thoracic aortas were excised from 8-week-old mail Sprague Dawley rats and the fibroadipose tissue was removed. The aortas were sectioned into 1-mm-long cross-sections, rinsed with Human Endothelial-SFM (GIBCO), placed on the Matrigel-coated wells, covered with additional 50 μl Matrigel, and allowed to gel for more than 30 min at 37° C., 5% CO2. All the rings were cultured in Human Endothelial-SFM (GIBCO) supplemented with […] of ECGS (Endothelial Cell Growth Supplement, Sigma) as an angiogenesis inducer. Racemic menthol propylene-carbonate diluted with enthanol was added to the culture medium at final concentrations of 1, 10, and 100 μM. Ethanol alone (1%) was added to the culture medium as a vehicle control. All assays were performed by using 5 aortic rings per sample. Aortic rings were photographed on day 10. The area of angiogenic sprouting was calculated using Image-Pro Plus software (Media Cybernetics). Microvessel densities are reported in square pixels.

Series [4] concerns Ha-CaT cells. Kind of series: cell cytotoxicity assay, XTT. It counts as cell-based. To be noted: for Cell Viability (%): 48 hours, Ha-CaT. Here is the method: 5×10^3 Ha-CaT cells were plated in each well of 96 well plates and racemic menthol propyleneglycol-carbonate was added at various concentrations. The plates were incubated for another 48 hours and the viable cells were measured by XTT Cell Proliferation Kit (Roche). More than 70% of Ha-CaT cells were viable even at high concentration of 100 μM.

Setting [5] is: 2.5 mg/ear topical (10% in acetone), 4 hours after TPA 2.5 μg/ear.

Take `CC1CCC(C(C)C)C(OCC(O)CO)C1` (centres unmarked) [menthoxy-propane-1,2-diol]: the “anti-inflammatory effect (in words)” value in series [1] was “Satisfactory anti-inflammatory effects”. Besides, the “Anti-inflammatory Effect (% of control)” value in series [1] (setting [5]) is 27 % of control.
As for `CC1CCC(C(C)C)C(O)C1` (centres unmarked) [(l)-Menthol, reference compound], in series [1], the “anti-inflammatory effect (in words)” value is reported as “no appreciable anti-inflammatory effect”. Further, the “Anti-inflammatory Effect (% of control)” value in series [1] (setting [5]) is reported as 0 % of control.
For the molecule `CC(O)COC(=O)OC1CC(C)CCC1C(C)C` (racemic) [racemic menthol propyleneglycol-carbonate], the “Proliferation (%)” value in series [2] (1 μM) is listed as 97.6%; in series [2] (5 μM), 93.9%; in series [2] (10 μM) it was 95.3%; in series [2] (50 μM), 97.6%; in series [2] (100 μM) it was 80.0%. For the same molecule, the “Average (relative cell number, XTT)” value came out at 1.0623 in series [2] (1 μM); 1.0305 in series [2] (5 μM); 1.0425 in series [2] (10 μM); 1.0621 in series [2] (50 μM); 0.9121 in series [2] (100 μM). The “% Inhibition (microvessel density)” value in series [3] (1 uM) is on record as 15%; in series [3] (10 uM), 22%; in series [3] (100 uM), 33%. Moreover, the “Microvessel Density (pixel^2)” value in series [3] (1 uM) was determined as 13.4 ± 4.1 pixel^2; in series [3] (10 uM) it was 12.2 ± 2.5 pixel^2; in series [3] (100 uM), 10.6 ± 3.8 pixel^2. In addition, the “anti-angiogenic effect (in words)” value in series [3] was “Satisfactory anti-angiogenic effect”; in series [3] (listed as racemic menthol propylene-carbonate) it was “inhibited microvessel formation in rat aortic ring assay in a dose dependent manner”. In addition, the “Cell Viability (%)” value in series [4] (0.1 uM) is on record as 100%; in series [4] (1.0 uM) it was 100%; in series [4] (5.0 uM) it was 96.5%; in series [4] (10.0 uM), 96.3%; in series [4] (50.0 uM), 81.8%. Further, the “cytotoxic effect on normal cells (in words)” value in series [4] (Ha-CaT cells, up to 100 μM) was “non-toxic against normal cells”. Besides, in series [1], the “anti-inflammatory effect (in words)” value is recorded as “Satisfactory anti-inflammatory effects”. Moreover, the “Anti-inflammatory Effect (% of control)” value in series [1] (setting [5]) is listed as 23 % of control.
As to `CC1CCC(C(C)C)C(OC(=O)OCCCCCCCCCO)C1` (centres unmarked) [menthyl-9-hydroxynonyl-carbonate], in series [1], the “anti-inflammatory effect (in words)” value is “Satisfactory anti-inflammatory effects”. Besides, the “Anti-inflammatory Effect (% of control)” value in series [1] (setting [5]) is listed as 45 % of control.
The like results for `C=C(C)C1CCC(C)CC1OC(=O)OCC(C)O` (centres unmarked) [isopulegol propyleneglycol-carbonate] were, in that order, “Satisfactory anti-inflammatory effects” and 33 % of control.
In the case of `COc1ccc2c(c1)c(CC(=O)O)c(C)n2C(=O)c1ccc(Cl)cc1` [Indomethacin, reference compound], the “Anti-inflammatory Effect (% of control)” value in series [1] (positive control, 0.5 mg/ear, 4 hours after TPA) was 96 % of control.
